Here are results for two compounds from US7399869B2, “Fibroblast activation protein inhibitor compounds and methods” (Genentech, Inc., priority 2005, dated 2008).

What all share (assay type): biochemical
In one assay the target is T1, POP (Homo sapiens, UniProt P48147).
T1 construct: 2-710 of POP; FLAG (N); made in house; host or cells: 293 cells; template plasmid from Origene
T1 sequence (P48147 2-710): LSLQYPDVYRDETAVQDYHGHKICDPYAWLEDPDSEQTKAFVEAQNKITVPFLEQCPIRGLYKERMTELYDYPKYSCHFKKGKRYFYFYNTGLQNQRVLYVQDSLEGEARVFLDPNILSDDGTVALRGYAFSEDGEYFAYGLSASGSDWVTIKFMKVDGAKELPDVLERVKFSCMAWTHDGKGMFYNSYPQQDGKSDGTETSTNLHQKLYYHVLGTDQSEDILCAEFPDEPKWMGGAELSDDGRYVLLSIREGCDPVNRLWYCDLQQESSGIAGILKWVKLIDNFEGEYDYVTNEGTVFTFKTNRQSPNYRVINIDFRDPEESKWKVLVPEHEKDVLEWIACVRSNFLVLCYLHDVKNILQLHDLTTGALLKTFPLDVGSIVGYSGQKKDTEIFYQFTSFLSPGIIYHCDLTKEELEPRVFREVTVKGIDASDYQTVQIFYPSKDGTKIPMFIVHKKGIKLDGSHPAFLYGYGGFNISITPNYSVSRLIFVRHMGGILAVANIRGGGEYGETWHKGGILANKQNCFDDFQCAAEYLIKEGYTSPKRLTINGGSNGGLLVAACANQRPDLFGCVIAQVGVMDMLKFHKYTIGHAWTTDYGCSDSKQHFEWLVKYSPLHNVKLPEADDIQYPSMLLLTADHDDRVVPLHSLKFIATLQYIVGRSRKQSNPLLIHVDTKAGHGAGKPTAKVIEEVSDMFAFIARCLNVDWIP
In words: Inhibition of POP by N-blocked boroPro compounds. The protocol: Briefly, proteases were added to a reaction mixture containing inhibitor and substrate (Ac-Ala-AMC for APH, Z-Gly-Pro-AMC for POP, and Ala-Pro-AFC for all others) in assay buffer at 23° C. Protease activity was followed continuously as described above to monitor time-dependent inhibition. Data were plotted as V0/Vi−1 versus [I], where V0 is the rate if substrate hydrolysis in the absence of inhibitor, Vi is the steady state rate of substrate hydrolysis in the presence of inhibitor and [I] is the concentration of Ac-Gly-BoroPro.
KI values for inhibition of proteases by 5 were determined using the method of progress curves. Briefly, proteases (10-100 nM) were added to a reaction mixture containing inhibitor 5 (0-10 μM) and substrate AP-AFC in assay buffer at 23° C. […] Data were plotted as V0/Vi−1 versus [I], where V0 is the rate if substrate hydrolysis in the absence of inhibitor, Vi is the steady state rate of substrate hydrolysis in the presence of inhibitor and [I] is the concentration of 5. […] Ki, the true equilibrium inhibition constant was determined according to the following relationship: Ki=Kobs/(1+[S]/Km), where [S] is the concentration of substrate used in the assay and Km is the Michaelis constant for substrate cleavage.
Plasmids encoding full-length proteases were obtained from Origene Technologies Inc., Rockville Md. […]

The next assay addresses T2, DPP-8 (Homo sapiens, UniProt Q6V1X1).
T2 construct: 2-883 of DPP-8; FLAG (N); made in house; host or cells: 293 cells; template plasmid from Origene
Put plainly: Relative cleavage of unblocked and N-blocked Gly-Pro-AFC by DPP-8. To be noted: protease DPP-8; unblocked vs N-blocked substrate. As to the method: (§1) The relative cleavage rates by FAP and several dipeptidases of N-blocked (8) and unblocked (7) Gly-Pro dipeptide substrates were measured.
(§2) Protease Assays—Protease activity was monitored continuously using a SpectraMax M2 microplate reader (Molecular Devices Corp., Sunnyvale Calif.) in the kinetic mode. Assays were conducted at 23° C. in 50 mM Tris (pH 7.4), 100 mM NaCl, 1 mM EDTA. The excitation/emission wavelengths for the different fluorogenic substrates were 360/460 nm (AMC), 400/505 nm (AFC), 340/425 nm (MNA), 340/510 nm (EDANS), and 337/425 nm (Abs). Standard curves of the appropriate fluorescent product versus concentration were used to convert relative fluorescence units to nmol of product produced. Substrates in the X-Pro-AMC library were used in rate assays at 5 μM final concentration. […] The kinetic parameters were calculated from Michaelis-Menten plots (V0 versus [S]) with nonlinear regression analysis using GraphPad software. kcat values were calculated under the assumption that each protease was 100% active.

The target in the next assay is DPP-4 (Homo sapiens, UniProt P27487). In words: Hydrolysis of C-terminal coumarin dipeptide substrates by DPP-4 (kinetic constants). On the set-up: DPP-4 (amino acids 39-766); FLAG (N); made in house; host or cells: 293 cells (secreted, purified from serum-free conditioned media). To be noted: protease DPP-4; unblocked vs N-blocked substrate. The protocol:
as §1
(§3) The cleavage (hydrolysis) rates of various C-terminal coumarin dipeptide substrates 7-16 by FAP and DPP-4 were measured (Tables 4 and 5). The amino-terminus of the substrates was unblocked and the amino acids were varied in Table 4. The amino-terminus of the substrates was blocked and the amino acids were varied in Table 5. To extend the results obtained with the dipeptide substrate library, kinetic parameters were determined for cleavage of the unblocked dipeptide substrates by FAP (Table 4). The catalytic efficiency (kcat/Km) for substrate cleavage was greatest with Ile-Pro-AFC, followed by Ala-Pro-, Gly-Pro- and Phe-Pro-AFC, consistent with the dipeptide substrate library results (FIG. 5). […] Kinetic constants for cleavage of Ala-Pro-AFC and Gly-Pro-AFC by DPP-4 were determined (Table 4). The catalytic efficiency for Ala-Pro-AFC hydrolysis was greater than that for Gly-Pro-AFC, and consistent with the dipeptide library.
as §2
(§4) When saturating amounts of substrate could not be achieved, catalytic efficiencies (kcat/Km) were determined under pseudo-first order conditions ([S]<<the estimated Km) and fit to the following equation: Ln[St/S0]=−kobst, where St is the concentration of substrate remaining at time t, S0 is the initial substrate concentration and kobs is the apparent first order substrate cleavage constant equal to (kcat/Km) times ET, the total enzyme concentration (Copeland, R. (2000) Enzymes, A Practical Introduction to Structure, Mechanism, and Data Analysis, 2nd Ed., John Wiley and Sons, Inc, New York). The linear relationship of Ln[St/S0] versus time allows calculation of kcat/Km by dividing the slope of the plot by ET.

Another assay has as its target T3, APH (Homo sapiens, UniProt P13798).
T3 construct: 2-732 of APH; FLAG (N); made in house; host or cells: 293 cells; template plasmid from Origene
T3 sequence (P13798 2-732): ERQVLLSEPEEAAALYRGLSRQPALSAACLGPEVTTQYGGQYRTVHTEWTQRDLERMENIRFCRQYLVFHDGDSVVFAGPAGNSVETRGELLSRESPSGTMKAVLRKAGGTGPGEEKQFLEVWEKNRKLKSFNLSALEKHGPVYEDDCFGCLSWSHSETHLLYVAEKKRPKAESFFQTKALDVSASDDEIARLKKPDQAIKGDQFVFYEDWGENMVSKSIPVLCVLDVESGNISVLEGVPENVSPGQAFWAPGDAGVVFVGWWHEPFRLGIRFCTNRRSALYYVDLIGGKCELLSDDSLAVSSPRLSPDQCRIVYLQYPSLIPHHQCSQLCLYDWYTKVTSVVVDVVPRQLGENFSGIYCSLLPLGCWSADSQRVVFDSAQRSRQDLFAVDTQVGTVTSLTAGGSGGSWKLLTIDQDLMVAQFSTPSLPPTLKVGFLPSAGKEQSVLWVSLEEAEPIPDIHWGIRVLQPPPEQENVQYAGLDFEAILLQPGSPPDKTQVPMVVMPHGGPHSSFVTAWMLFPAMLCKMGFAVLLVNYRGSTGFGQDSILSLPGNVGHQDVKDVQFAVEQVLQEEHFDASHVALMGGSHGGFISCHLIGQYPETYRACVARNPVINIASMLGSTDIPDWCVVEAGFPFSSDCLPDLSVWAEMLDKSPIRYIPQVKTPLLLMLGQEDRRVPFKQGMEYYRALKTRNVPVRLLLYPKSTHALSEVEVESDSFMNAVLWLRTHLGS
Put plainly: Relative cleavage of unblocked and N-blocked Gly-Pro-AFC by APH. To be noted: protease APH; unblocked vs N-blocked substrate. As to the method:
as §1, §2

The next assay deals with T4, FAP (Homo sapiens, UniProt Q12884).
T4 sequence (Q12884 38-760): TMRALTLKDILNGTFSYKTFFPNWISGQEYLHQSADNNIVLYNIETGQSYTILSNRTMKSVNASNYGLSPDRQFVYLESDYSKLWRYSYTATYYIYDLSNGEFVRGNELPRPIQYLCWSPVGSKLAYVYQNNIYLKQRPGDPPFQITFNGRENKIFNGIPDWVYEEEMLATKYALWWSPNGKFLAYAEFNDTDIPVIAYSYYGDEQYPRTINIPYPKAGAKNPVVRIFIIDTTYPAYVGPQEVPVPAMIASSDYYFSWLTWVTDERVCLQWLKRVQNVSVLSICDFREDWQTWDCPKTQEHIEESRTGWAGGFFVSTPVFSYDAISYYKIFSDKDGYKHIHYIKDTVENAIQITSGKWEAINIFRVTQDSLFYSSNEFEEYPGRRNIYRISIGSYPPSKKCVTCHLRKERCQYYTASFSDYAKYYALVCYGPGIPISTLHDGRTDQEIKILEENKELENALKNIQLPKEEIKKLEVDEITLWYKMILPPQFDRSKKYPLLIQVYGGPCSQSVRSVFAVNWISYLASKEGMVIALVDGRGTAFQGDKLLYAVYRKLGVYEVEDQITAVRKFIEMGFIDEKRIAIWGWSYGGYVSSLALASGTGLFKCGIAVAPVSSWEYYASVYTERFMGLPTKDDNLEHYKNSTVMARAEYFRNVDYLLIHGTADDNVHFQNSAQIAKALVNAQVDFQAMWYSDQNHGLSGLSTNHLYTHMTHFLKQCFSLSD
In words: Hydrolysis of C-terminal coumarin dipeptide substrates by FAP (kinetic constants). On the set-up: FAP (amino acids 38-760); FLAG (N); made in house; host or cells: 293 cells (secreted, purified from serum-free conditioned media). To be noted: protease FAP; unblocked vs N-blocked substrate. As to the method: as §1, §3, §2, §4

A further assay has as its target T5, DPP-9 (Homo sapiens, UniProt Q86TI2).
T5 construct: 2-864 of DPP-9; FLAG (N); made in house; host or cells: 293 cells; template plasmid from Origene
Put plainly: Relative cleavage of unblocked and N-blocked Gly-Pro-AFC by DPP-9. To be noted: protease DPP-9; unblocked vs N-blocked substrate. As to the method: as §1, §2

The next assay addresses T6, DPP-7 (Homo sapiens, UniProt Q9UHL4).
T6 construct: These constructs encoded amino acids 26-492 of DPP-7; FLAG (N); made in house; host or cells: 293 cells; template plasmid from Origene
In words: Relative cleavage of unblocked and N-blocked Gly-Pro-AFC by DPP-7. To be noted: protease DPP-7; unblocked vs N-blocked substrate. As to the method:
as §1, §2

In general, Ki refers to a measure of affinity in units of concentration, obtained from inhibition or displacement. A high value points to lower affinity.

T2 sequence (Q6V1X1 18-898 limits assumed): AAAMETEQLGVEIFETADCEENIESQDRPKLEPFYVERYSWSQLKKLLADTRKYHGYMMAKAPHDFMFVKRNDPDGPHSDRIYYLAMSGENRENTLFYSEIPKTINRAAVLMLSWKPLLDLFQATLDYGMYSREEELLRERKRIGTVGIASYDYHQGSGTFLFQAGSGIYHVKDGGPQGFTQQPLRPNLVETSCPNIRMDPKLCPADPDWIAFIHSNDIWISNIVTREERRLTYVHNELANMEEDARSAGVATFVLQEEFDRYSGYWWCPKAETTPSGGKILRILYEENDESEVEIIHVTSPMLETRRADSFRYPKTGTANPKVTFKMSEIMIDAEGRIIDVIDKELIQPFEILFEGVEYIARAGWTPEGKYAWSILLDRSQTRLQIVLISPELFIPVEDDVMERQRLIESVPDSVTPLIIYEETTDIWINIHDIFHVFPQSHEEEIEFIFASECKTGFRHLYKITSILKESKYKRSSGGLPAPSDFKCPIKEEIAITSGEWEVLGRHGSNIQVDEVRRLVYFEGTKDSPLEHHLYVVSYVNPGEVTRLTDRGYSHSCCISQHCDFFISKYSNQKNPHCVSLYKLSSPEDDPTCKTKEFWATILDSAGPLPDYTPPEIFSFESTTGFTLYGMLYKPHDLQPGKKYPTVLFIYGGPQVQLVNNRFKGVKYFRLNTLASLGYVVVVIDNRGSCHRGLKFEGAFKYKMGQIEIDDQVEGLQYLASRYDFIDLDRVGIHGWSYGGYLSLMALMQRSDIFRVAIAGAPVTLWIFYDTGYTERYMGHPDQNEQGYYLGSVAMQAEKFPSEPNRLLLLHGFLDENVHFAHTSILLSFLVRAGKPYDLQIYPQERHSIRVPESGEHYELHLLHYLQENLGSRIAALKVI
T5 sequence (Q86TI2 2-863 limits assumed): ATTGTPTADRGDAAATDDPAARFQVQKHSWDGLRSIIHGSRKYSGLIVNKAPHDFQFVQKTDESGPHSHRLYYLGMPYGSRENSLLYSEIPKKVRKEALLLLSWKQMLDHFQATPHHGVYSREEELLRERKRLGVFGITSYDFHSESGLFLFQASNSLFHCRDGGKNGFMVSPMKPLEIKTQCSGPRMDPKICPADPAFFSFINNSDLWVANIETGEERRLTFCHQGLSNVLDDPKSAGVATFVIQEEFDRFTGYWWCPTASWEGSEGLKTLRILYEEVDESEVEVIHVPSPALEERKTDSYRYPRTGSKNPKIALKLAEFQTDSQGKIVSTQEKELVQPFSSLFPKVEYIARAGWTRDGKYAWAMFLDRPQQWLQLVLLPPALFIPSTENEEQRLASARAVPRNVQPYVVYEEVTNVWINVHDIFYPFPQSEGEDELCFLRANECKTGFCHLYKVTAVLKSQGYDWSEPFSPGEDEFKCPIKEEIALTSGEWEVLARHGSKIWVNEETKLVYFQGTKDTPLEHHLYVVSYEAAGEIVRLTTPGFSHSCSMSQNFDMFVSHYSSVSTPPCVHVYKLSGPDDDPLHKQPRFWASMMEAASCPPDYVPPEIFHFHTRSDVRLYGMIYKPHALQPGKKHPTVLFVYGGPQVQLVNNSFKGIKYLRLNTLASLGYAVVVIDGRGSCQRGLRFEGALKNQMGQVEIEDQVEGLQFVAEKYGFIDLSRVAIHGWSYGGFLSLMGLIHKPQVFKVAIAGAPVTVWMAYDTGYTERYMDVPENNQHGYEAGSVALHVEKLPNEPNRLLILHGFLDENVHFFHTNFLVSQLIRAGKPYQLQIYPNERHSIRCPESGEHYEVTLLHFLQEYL
Chain of DPP-4 (P27487 39-766): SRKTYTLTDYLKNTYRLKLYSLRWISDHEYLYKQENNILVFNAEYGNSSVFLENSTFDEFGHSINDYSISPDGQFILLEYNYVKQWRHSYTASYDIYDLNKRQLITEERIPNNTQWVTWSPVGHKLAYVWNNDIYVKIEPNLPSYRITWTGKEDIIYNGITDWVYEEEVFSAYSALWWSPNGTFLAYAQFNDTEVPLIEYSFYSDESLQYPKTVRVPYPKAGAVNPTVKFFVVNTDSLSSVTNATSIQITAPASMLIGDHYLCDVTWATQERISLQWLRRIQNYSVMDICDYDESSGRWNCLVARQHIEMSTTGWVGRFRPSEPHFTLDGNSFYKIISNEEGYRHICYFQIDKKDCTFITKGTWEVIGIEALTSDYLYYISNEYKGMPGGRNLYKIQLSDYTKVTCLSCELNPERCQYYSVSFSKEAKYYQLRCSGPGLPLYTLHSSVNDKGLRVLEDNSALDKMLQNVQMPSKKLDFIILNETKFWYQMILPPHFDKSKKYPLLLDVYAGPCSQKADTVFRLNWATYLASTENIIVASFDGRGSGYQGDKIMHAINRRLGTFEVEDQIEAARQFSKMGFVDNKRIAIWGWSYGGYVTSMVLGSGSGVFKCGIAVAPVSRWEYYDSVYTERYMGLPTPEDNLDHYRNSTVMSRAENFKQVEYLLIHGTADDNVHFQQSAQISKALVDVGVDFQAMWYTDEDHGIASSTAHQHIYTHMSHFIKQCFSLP

With `CC(C)C(=O)N(C)CC(=O)N1CCCC1B(O)O` (stereo not shown) [N-isobutyryl-sarcosyl-boroPro], the Ki at POP was 63 nM.
Regarding `NCC(=O)N1CCCC1C(=O)Nc1ccc2c(C(F)(F)F)c(CC(N)=O)c(=O)oc2c1` (stereo not drawn) [Gly-Pro-AFC 7, Gly-Pro-AFC], the “Relative Activity Gly-Pro-AFC 7/Ac-Gly-Pro-AFC 8” value is listed as 33 at DPP-8; 10,000 on DPP-4; “no cleavage” on APH; 1.0 on FAP; 10,000 on DPP-9; 200 at DPP-7.
